Values quoted from earlier work, collected in EP3957303A1, “PHARMACEUTICAL COMBINATION PREPARATION COMPRISING EZETIMIBE AND LOSARTAN” (Hanmi Pharm. Co., Ltd., priority 2019, dated 2020).

saturation solubility (under acidic to weakly basic conditions such as body fluids): about 1 ppm
solubility in water (water): practically insoluble in water
Structure (SMILES): O=C1[C@H](CC[C@H](O)c2ccc(F)cc2)[C@@H](c2ccc(O)cc2)N1c1ccc(F)cc1 [Ezetimibe, 1-(4-fluorophenyl)-3(R)-[3-(4-fluorophenyl)-3(S)-hydroxypropyl]-4(S)-(4-hydroxyphenyl)-2-azetidinone]
